SMILES strings stand for the structures. Values after ≈ are worked out from the molar mass of the structure shown.

A short description of data set [1]: Human plasma protein binding (equilibrium dialysis). The class given is in vitro ADME. A general note: In equilibrium dialysis free small molecules cross a membrane that holds back macromolecules.
Data set [2] in a line: Log D (shake flask, 1-octanol/aqueous buffer). The format is physicochemical. The note with it: 1-octanol/aqueous buffer, pH 7.4, pH 7.4.
Data set [3] has as its target T1, Estrogen Receptor (ERα) in MCF-7 cells (Homo sapiens (Human), UniProt P03372). The data set is described as follows: MCF-7 ER down-regulation assay (immuno-fluorescence). The class given is cell-based.
The next data set has as its target hERG potassium channel (Homo sapiens (Human), UniProt Q12809).
Data set [4] deals with recombinant human Estrogen Receptor alpha ligand binding domain (ER alpha-LBD (GST)) (Homo sapiens (Human), UniProt P03372). Put plainly: ERα binding assay (LanthaScreen TR-FRET competition). (In TR-FRET formats the signal depends on donor and acceptor labels being close together.)
recombinant human Estrogen Receptor alpha ligand binding domain (ER alpha-LBD (GST)), sequence (P03372 307-554): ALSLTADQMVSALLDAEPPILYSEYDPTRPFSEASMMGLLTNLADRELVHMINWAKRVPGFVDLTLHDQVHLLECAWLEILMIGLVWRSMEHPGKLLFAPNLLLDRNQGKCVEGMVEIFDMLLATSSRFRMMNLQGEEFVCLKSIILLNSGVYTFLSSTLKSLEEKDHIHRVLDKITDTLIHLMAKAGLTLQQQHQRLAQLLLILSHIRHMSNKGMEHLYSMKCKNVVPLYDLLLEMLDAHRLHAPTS
The nature of data set [5]: Thermodynamic solubility (shake-flask). The class given is physicochemical. The note with it: aqueous phosphate buffer, 25 °C, pH 7.4, aqueous buffer, thermodynamic from solid, phosphate buffer pH 7.4, 24 hours.
The target in data set [6] is estrogen receptor (ERα) in CAMA-1 cells (Homo sapiens (Human), UniProt P03372). The data set is described as follows: Western blotting assay, ER down-regulation in CAMA-1. The format is cell-based. Particulars: CAMA-1, 100 nM compound, 48 h, vs 100 nM fulvestrant. For orientation: Immunoblotting shows a protein as a band on a membrane.
estrogen receptor (ERα) in CAMA-1 cells, sequence (P03372 whole entry): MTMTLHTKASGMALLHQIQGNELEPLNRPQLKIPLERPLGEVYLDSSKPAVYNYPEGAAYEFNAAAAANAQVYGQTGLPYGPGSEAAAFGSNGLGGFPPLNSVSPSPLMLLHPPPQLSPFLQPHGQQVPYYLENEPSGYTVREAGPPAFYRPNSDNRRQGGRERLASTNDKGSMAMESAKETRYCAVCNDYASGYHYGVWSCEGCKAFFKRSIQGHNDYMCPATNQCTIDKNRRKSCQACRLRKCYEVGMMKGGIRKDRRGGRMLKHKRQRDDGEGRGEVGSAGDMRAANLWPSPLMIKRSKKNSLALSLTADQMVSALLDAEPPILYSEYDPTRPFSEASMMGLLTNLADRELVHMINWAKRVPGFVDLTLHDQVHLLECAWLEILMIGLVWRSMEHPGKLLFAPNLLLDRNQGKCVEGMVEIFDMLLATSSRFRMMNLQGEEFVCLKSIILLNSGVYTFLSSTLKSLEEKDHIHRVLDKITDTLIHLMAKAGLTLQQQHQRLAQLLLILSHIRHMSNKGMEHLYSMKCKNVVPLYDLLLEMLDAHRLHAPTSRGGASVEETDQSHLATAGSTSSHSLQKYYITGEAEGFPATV
Data set [7] deals with T1, Estrogen Receptor (ERα) in MCF-7 cells. Put plainly: Western blotting assay, ER down-regulation in MCF-7. The class given is cell-based. Particulars: MCF-7, 100 nM compound, 48 h, vs 100 nM fulvestrant.

T1 sequence (P03372 whole entry): as above
hERG potassium channel, sequence (Q12809 whole entry, the tested form may be a part): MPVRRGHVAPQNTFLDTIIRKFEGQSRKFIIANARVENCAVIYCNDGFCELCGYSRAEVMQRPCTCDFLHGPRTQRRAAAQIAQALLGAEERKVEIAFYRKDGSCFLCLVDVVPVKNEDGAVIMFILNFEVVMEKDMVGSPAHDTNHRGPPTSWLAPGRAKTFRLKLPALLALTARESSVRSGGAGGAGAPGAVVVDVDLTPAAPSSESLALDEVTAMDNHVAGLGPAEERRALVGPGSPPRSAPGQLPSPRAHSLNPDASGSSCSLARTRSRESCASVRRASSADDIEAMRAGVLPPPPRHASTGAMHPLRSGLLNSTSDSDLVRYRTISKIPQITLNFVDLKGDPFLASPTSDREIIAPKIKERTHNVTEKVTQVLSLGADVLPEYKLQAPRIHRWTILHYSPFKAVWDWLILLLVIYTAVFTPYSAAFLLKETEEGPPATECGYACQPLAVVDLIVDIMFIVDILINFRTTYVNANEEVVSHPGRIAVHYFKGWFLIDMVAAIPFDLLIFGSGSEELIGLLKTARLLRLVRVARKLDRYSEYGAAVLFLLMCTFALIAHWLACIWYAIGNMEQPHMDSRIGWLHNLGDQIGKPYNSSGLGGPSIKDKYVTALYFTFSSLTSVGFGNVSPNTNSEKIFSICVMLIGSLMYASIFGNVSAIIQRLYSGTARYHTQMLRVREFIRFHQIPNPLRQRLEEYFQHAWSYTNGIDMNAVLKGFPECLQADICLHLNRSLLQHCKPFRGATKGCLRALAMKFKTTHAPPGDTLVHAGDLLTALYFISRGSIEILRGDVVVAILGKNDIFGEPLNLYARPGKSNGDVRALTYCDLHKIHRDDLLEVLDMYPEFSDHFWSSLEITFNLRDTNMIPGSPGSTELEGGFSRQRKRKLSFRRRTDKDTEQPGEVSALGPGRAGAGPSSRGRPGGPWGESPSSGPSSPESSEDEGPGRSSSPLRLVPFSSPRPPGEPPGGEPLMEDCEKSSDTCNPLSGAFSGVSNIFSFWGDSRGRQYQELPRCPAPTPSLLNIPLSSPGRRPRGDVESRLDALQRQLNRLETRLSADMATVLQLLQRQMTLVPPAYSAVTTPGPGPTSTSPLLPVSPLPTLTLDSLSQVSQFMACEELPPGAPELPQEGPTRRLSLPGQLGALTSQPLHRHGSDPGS
Method for hERG potassium channel: The assay was conducted as follows with all reagents used at room temperature unless otherwise stated.
All compounds were acoustically dispensed in quadruplicate using a Labcyte Echo.
Calculation of results is performed using APC package within Genedata. For the routine normalization of well data with Neutral and Inhibitor control well groups as reference, GeneData Assay Analyzer uses the following equation to normalize the signal values to the desired signal range:
[formula] x is the measured raw signal value of a well is the median of the measured signal values for the Central Reference (Neutral) wells on a plate is the median of the measured signal values for the Scale Reference (Inhibitor) wells on a plate CR is the desired median normalized value for the Central Reference (Neutral) SR is the desired median normalized value for the Scale Reference (Inhibitor)

In the case of `C[C@@H]1Cc2c([nH]c3ccccc23)[C@@H](c2c(F)ccc(OCCNCCCF)c2F)N1CC1(F)COC1` [Example 13, N-(2-(2,4-difluoro-3-((1R,3R)-2-((3-fluorooxetan-3-yl)methyl)-3-methyl-2,3,4,9-tetrahydro-1H-pyrido[3,4-b]indol-1-yl)phenoxy)ethyl)-3-fluoropropan-1-amine], the “Human plasma protein binding (% free)” value in data set [1] came to 3.5 % free. In addition, the logD (as a rule, lipophilicity at a set pH, counting ionised and neutral species) in data set [2] stood at 2.6. Besides, the IC50 (in general, the concentration at which inhibition is half-maximal) came out at 0.22 nM in data set [3], 2600 nM at hERG potassium channel and 1.6 nM in data set [4]. The solubility (in general, the concentration that dissolves in the medium under given conditions) at 24 h in data set [5] amounted to 493 µM (≈ 249 µg/mL). For the same compound, the “CAMA1 Western % ER deg vs Fv” value in data set [6] amounted to 92%. In data set [7], the “MCF7 Western % ER deg vs Fv” value is on record as 83%.
In the case of `C[C@@H]1Cc2c([nH]c3ccc(F)cc23)[C@@H](c2c(F)ccc(OCCNCCCF)c2F)N1CC(F)(F)CO` [Example 15, 3-((1R,3R)-1-(2,6-difluoro-3-(2-((3-fluoropropyl)amino)ethoxy)phenyl)-6-fluoro-3-methyl-1,3,4,9-tetrahydro-2H-pyrido[3,4-b]indol-2-yl)-2,2-difluoropropan-1-ol], in data set [1], the “Human plasma protein binding (% free)” value was 3.2 % free. This compound showed a logD in data set [2] of 2.9. Besides, the IC50 in data set [3] is 0.079 nM; on hERG potassium channel, 4600 nM; in data set [4], 0.55 nM. Moreover, in data set [5], the solubility at 24 h was 571 µM (≈ 302 µg/mL). Besides, in data set [6], the “CAMA1 Western % ER deg vs Fv” value is 91%. Moreover, in data set [7], the “MCF7 Western % ER deg vs Fv” value was determined as 94%.
On to `C[C@@H]1Cc2c([nH]c3ccccc23)[C@@H](c2cc(OCCNCCCF)ccc2C#N)N1CC(F)(F)F` [Example 23, 4-(2-((3-fluoropropyl)amino)ethoxy)-2-((1R,3R)-3-methyl-2-(2,2,2-trifluoroethyl)-2,3,4,9-tetrahydro-1H-pyrido[3,4-b]indol-1-yl)benzonitrile], for which, in data set [1], the “Human plasma protein binding (% free)” value came to 3.7 % free. The compound further gave a logD in data set [2] of 3.4. In addition, the IC50 stood at 0.5 nM in data set [3], 5400 nM at hERG potassium channel and 2.7 nM in data set [4]. In data set [5], the solubility at 24 h worked out at 73 µM (≈ 35.7 µg/mL). Further, the “CAMA1 Western % ER deg vs Fv” value in data set [6] is given as 95%. The “MCF7 Western % ER deg vs Fv” value in data set [7] is listed as 95%.
Regarding `C[C@@H]1Cc2c([nH]c3ccccc23)[C@@H](c2cc(OCCNCCCF)ccn2)N1CC(F)(F)F` [Example 35, 3-fluoro-N-(2-((2-((1S,3R)-3-methyl-2-(2,2,2-trifluoroethyl)-2,3,4,9-tetrahydro-1H-pyrido[3,4-b]indol-1-yl)pyridin-4-yl)oxy)ethyl)propan-1-amine], the “Human plasma protein binding (% free)” value in data set [1] was found to be 5.4 % free. For the same compound, the logD in data set [2] came to 3.1. Moreover, the IC50 in data set [3] was 1.1 nM; at hERG potassium channel, 5600 nM; in data set [4], 1.9 nM. In data set [5], this compound displayed a solubility at 24 h of 222 µM (≈ 103 µg/mL). Besides, in data set [6], the “CAMA1 Western % ER deg vs Fv” value was found to be 92%. For the same compound, in data set [7], the “MCF7 Western % ER deg vs Fv” value turned out to be 94%.
As for `C[C@@H]1Cc2c([nH]c3ccccc23)[C@@H](c2cc(OCCNCCCF)ccc2Cl)N1CC(F)(F)CO` [Example 44, 3-((1R,3R)-1-(2-chloro-5-(2-((3-fluoropropyl)amino)ethoxy)phenyl)-3-methyl-1,3,4,9-tetrahydro-2H-pyrido[3,4-b]indol-2-yl)-2,2-difluoropropan-1-ol], the “Human plasma protein binding (% free)” value in data set [1] amounted to 2.3 % free. Besides, the logD in data set [2] stood at 3.3. Also, the figures for the IC50 (in data set [3]; on hERG potassium channel; in data set [4]) were 0.14 nM, 2900 nM and 1 nM, respectively. In data set [5], this compound came in with a solubility at 24 h of 278 µM (≈ 142 µg/mL). The “CAMA1 Western % ER deg vs Fv” value in data set [6] is on record as 94%. The “MCF7 Western % ER deg vs Fv” value in data set [7] is recorded as 95%.
As to `COc1ccc(OCCNCCCF)cc1[C@@H]1c2[nH]c3ccc(F)cc3c2C[C@@H](C)N1CC(F)(F)CO` [Example 46, 2,2-difluoro-3-((1R,3R)-6-fluoro-1-(5-(2-((3-fluoropropyl)amino)ethoxy)-2-methoxyphenyl)-3-methyl-1,3,4,9-tetrahydro-2H-pyrido[3,4-b]indol-2-yl)propan-1-ol], the “Human plasma protein binding (% free)” value in data set [1] worked out at 2.4 % free. This compound had a logD in data set [2] of 2.8. For the same compound, the IC50 in data set [3] amounted to 0.22 nM; on hERG potassium channel, 2700 nM; in data set [4] it was 1 nM. In addition, the solubility at 24 h in data set [5] is 462 µM (≈ 242 µg/mL). Further, the “CAMA1 Western % ER deg vs Fv” value in data set [6] is reported as 89%. In data set [7], the “MCF7 Western % ER deg vs Fv” value is reported as 83%.
On to `C[C@@H]1Cc2c([nH]c3ccccc23)[C@@H](c2c(F)ccc(OCCNCCCF)c2F)N1CC(F)F` [Example 51, N-(2-(3-((1R,3R)-2-(2,2-difluoroethyl)-3-methyl-2,3,4,9-tetrahydro-1H-pyrido[3,4-b]indol-1-yl)-2,4-difluorophenoxy)ethyl)-3-fluoropropan-1-amine], for which the “Human plasma protein binding (% free)” value in data set [1] came out at 2.3 % free. The logD in data set [2] worked out at 3.2. Besides, the IC50 is 0.12 nM in data set [3], 4100 nM on hERG potassium channel and 1.2 nM in data set [4]. The compound further had a solubility at 24 h in data set [5] of 122 µM (≈ 58.7 µg/mL). Moreover, the “CAMA1 Western % ER deg vs Fv” value in data set [6] came out at 93%. The “MCF7 Western % ER deg vs Fv” value in data set [7] is 92%.
On to `C[C@@H]1Cc2c([nH]c3c(F)cccc23)[C@@H](c2c(F)ccc(OCCNCCCF)c2F)N1CC(F)(F)CO` [Example 60, 3-((1R,3R)-1-(2,6-difluoro-3-(2-((3-fluoropropyl)amino)ethoxy)phenyl)-8-fluoro-3-methyl-1,3,4,9-tetrahydro-2H-pyrido[3,4-b]indol-2-yl)-2,2-difluoropropan-1-ol], for which the “Human plasma protein binding (% free)” value in data set [1] worked out at 1.9 % free. Besides, in data set [2], the logD stood at 3. The values for the IC50 (in data set [3]; against hERG potassium channel; in data set [4]) were 0.12 nM, 4400 nM and 0.84 nM, respectively. In data set [5], this compound had a solubility at 24 h of 351 µM (≈ 186 µg/mL). In data set [6], the “CAMA1 Western % ER deg vs Fv” value was determined as 97%. Further, the “MCF7 Western % ER deg vs Fv” value in data set [7] amounted to 92%.
As to `C[C@@H]1Cc2c([nH]c3cc(F)ccc23)[C@@H](c2c(F)ccc(OCCNCCCF)c2F)N1CC(F)(F)CO` [Example 61, 3-((1R,3R)-1-(2,6-difluoro-3-(2-((3-fluoropropyl)amino)ethoxy)phenyl)-7-fluoro-3-methyl-1,3,4,9-tetrahydro-2H-pyrido[3,4-b]indol-2-yl)-2,2-difluoropropan-1-ol], the “Human plasma protein binding (% free)” value in data set [1] came out at 2.0 % free. Moreover, the logD in data set [2] came to 3. The IC50 in data set [3] turned out to be 0.19 nM; at hERG potassium channel, 2700 nM; in data set [4], 0.79 nM. The compound further had a solubility at 24 h in data set [5] of 446 µM (≈ 236 µg/mL). For the same compound, the “CAMA1 Western % ER deg vs Fv” value in data set [6] was 83%. In addition, in data set [7], the “MCF7 Western % ER deg vs Fv” value worked out at 94%.
Turning to `C[C@@H]1Cc2c([nH]c3cccc(F)c23)[C@@H](c2c(F)ccc(OCCNCCCF)c2F)N1CC(F)(F)CO` [Example 62, 3-((1R,3R)-1-(2,6-difluoro-3-(2-((3-fluoropropyl)amino)ethoxy)phenyl)-5-fluoro-3-methyl-1,3,4,9-tetrahydro-2H-pyrido[3,4-b]indol-2-yl)-2,2-difluoropropan-1-ol], the “Human plasma protein binding (% free)” value in data set [1] was 1.2 % free. The same compound gave a logD in data set [2] of 3.3. Moreover, the IC50 in data set [3] amounted to 0.076 nM; at hERG potassium channel, 5000 nM; in data set [4] it was 0.71 nM. Besides, the solubility at 24 h in data set [5] stood at 302 µM (≈ 160 µg/mL). Further, the “CAMA1 Western % ER deg vs Fv” value in data set [6] amounted to 96%. Further, in data set [7], the “MCF7 Western % ER deg vs Fv” value came out at 95%.
On to `Cc1ccc2[nH]c3c(c2c1)C[C@@H](C)N(CC(F)(F)CO)[C@@H]3c1c(F)ccc(OCCNCCCF)c1F` [Example 63, 3-((1R,3R)-1-(2,6-difluoro-3-(2-((3-fluoropropyl)amino)ethoxy)phenyl)-3,6-dimethyl-1,3,4,9-tetrahydro-2H-pyrido[3,4-b]indol-2-yl)-2,2-difluoropropan-1-ol], for which the “Human plasma protein binding (% free)” value in data set [1] came to 0.97 % free. In data set [2], this compound registered a logD of 3.1. For the same compound, the results for the IC50 (in data set [3]; against hERG potassium channel; in data set [4]) were 0.32 nM, 4700 nM and 1.1 nM, respectively. For the same compound, the solubility at 24 h in data set [5] stood at 273 µM (≈ 143 µg/mL). In addition, the “CAMA1 Western % ER deg vs Fv” value in data set [6] is reported as 85%. Further, the “MCF7 Western % ER deg vs Fv” value in data set [7] amounted to 94%.
Consider `C[C@@H]1Cc2c([nH]c3ccc(F)cc23)[C@@H](c2c(F)cnc(OCCNCCCF)c2F)N1CC(F)(F)CO` [Example 65, 3-((1R,3R)-1-(3,5-difluoro-2-(2-((3-fluoropropyl)amino)ethoxy)pyridin-4-yl)-6-fluoro-3-methyl-1,3,4,9-tetrahydro-2H-pyrido[3,4-b]indol-2-yl)-2,2-difluoropropan-1-ol], for which the “Human plasma protein binding (% free)” value in data set [1] is 1.9 % free. Further, in data set [2], the logD amounted to 3. The values for the IC50 (in data set [3]; on hERG potassium channel; in data set [4]) were 0.058 nM, 9400 nM and 0.64 nM, respectively. For the same compound, the solubility at 24 h in data set [5] is 462 µM (≈ 245 µg/mL). For the same compound, the “CAMA1 Western % ER deg vs Fv” value in data set [6] turned out to be 97%. The “MCF7 Western % ER deg vs Fv” value in data set [7] is 94%.
With `C[C@@H]1Cc2c([nH]c3ccccc23)[C@@H](c2c(F)ccc(NCCNCCCF)c2F)N1CC(F)(F)F` [Example 88, N1-(2,4-difluoro-3-((1R,3R)-3-methyl-2-(2,2,2-trifluoroethyl)-2,3,4,9-tetrahydro-1H-pyrido[3,4-b]indol-1-yl)phenyl)-N2-(3-fluoropropyl)ethane-1,2-diamine], the “Human plasma protein binding (% free)” value in data set [1] came out at 0.58 % free. For the same compound, in data set [2], the logD was 3.4. Besides, the figures for the IC50 (in data set [3]; against hERG potassium channel; in data set [4]) were 0.28 nM, 4800 nM and 2.2 nM, respectively. The solubility at 24 h in data set [5] stood at 118 µM (≈ 58.8 µg/mL). For the same compound, the “CAMA1 Western % ER deg vs Fv” value in data set [6] stood at 93%. In addition, in data set [7], the “MCF7 Western % ER deg vs Fv” value was 90%.

Values taken from patent US10221173B2, “Chemical compounds” (AstraZeneca AB, priority 2017, dated 2019).
